Results reported in patent US20040115284A1, “Use of gamma-GT inhibitors for the treatment of degenerative diseases” (priority 2001, published 2004).
Marks after values point to notes of the source that are not given here.

How the values were obtained:
Glutathione Peroxidase = experiment: Glutathione peroxidase activity in Mpv17 −/− cells (LUSVX) grown in presence of MnTBAP or acivicin; assay type: cell-based, mouse
From the text: (§1) Kidneys from background mice (CFW×Balb/c) and transgenic homozygous Mpv17−/− mice (H. Weiher, T. Noda, D. A. Gray, A. H. Sharpe and R. Jaenisch (1990), Cell, 62, pp. 425434) were obtained at an age of 7 to 9 months and frozen in liquid nitrogen. LUSVX cells (SV40 immortalised fibroblasts from the lungs of Mpv17−/− mice), and NIX1 5 cells (Mpv+/+ cells derived from LUSVX cells by stable transfection of an expression construct for the human Mpv17 cDNA) (A. Reuter. A. Nestl, R. M. Zwacka, J. Tuckermann, R. Waldherr, E. M. Wagner, M. Hoyhtya, A. M. Meyer zum Gottesberge, P. Angel and H. Weiher (1998), Molecular Biology of the Cell, 9, pp. 1675-1682) were grown in DMEM including 10% fetal calf serum (FCS) and 1 μg/ml puromycin (NIX15 cultures) at 6.5% CO2 Cells were harvested by trypsinisation and each 5×10^6 cells were washed in 1.5 ml of phosphate-buffered saline (PBS) before freezing the pellet in liquid nitrogen. Where indicated, Mn(III)tetrakis(4-benzoic acid)porphyrin (MnTBAP), final concentration 10 μM (Y. Noda, M. Kohno, A. Mori and L. Packer (1999), Methods in Enzymology, 299, pp. 28-34) (Calbiochem, Schwalbach, FRG), or the γ-GT inhibitor acivicin (AT-125), final concentration 50 μM (Sigma, Deisenhofen, FRG) were added in DMEM/10% FCS 18 h before harvesting the cells. Kidneys and cells were stored frozen at −80° C.
Cell fractions were prepared by differential centrifugation from 20% tissue and cell homogenates (w/v) in 10 mM potassium phosphate buffer, pH 7.0, containing 0.25 M sucrose, 150 mM potassium chloride, 1 mM EDTA, 2 mM dithiothreitol, and 50 μM phenylmethylsulfonyl fluoride. Enzyme activities were determined at 25° C.: catalase in the 25,000×g (10 min) pellet H. E. Aebi (1983), In Methods of Enzymatic Analysis (ed. H. U. Bergmeyer), Verlag Chemie, Weinheim, pp. 273-276); glutathione peroxidase (GPx) (R. A. Lawrence and R. F. Burk (1976), Biochemical Biophysical Research Communications, 71, pp. 952-958), GSSG reductase (Goldberg, D. M. S. R. F. (1983) In Methods of Enzymatic Analysis (ed. H. U. Bergmeyer) Verlag Chemie, Weinheim, pp. 258-265), glutathione transferase (GST) with 1-chloro-2,4-dinitrobenzene (CDNB) W. H. Habig, M. J. Pabst and W. B. Jakoby (1974), Journal Biological Chemistry, 249, pp. 7130-7139, and superoxide dismutase (SOD) (S. Marklund and G. Marklund (1974), European Journal of Biochemistry, 47, pp. 469-474) in the 105,000×g (45 min) supernatant; γ-glutamyl transpeptidase (γ-GT) ) (S. Marklund and G. Marklund (1974), European Journal of Biochemistry, 47, pp. 469-474) in the resuspended 105,000×g pellet containing 1% Triton X-100. Protein was measured by the method of Bradford using bovine serum albumin as standard (M. M. Bradford (1976), Analytical Biochemistry, 72, pp. 248-254).

[1] = target: T1, γ-Glutamyl Transpeptidase (Mus musculus, UniProt Q60928); experiment: γ-glutamyl transpeptidase activity in Mpv17 −/− cells (LUSVX) grown in presence of MnTBAP or acivicin; assay type: cell-based
T1 construct: in the resuspended 105,000×g pellet containing 1% Triton X-100; endogenous in cells; host or cells: LUSVX cells (SV40-immortalised lung fibroblasts from Mpv17−/− mice)
From the text: as §1
Cell fractions were prepared by differential centrifugation from 20% tissue and cell homogenates (w/v) in 10 mM potassium phosphate buffer, pH 7.0, containing 0.25 M sucrose, 150 mM potassium chloride, 1 mM EDTA, 2 mM dithiothreitol, and 50 μM phenylmethylsulfonyl fluoride. […] Protein was measured by the method of Bradford using bovine serum albumin as standard (M. M. Bradford (1976), Analytical Biochemistry, 72, pp. 248-254).

pGPx mRNA = pGPx mRNA level by quantitative RT-PCR in Mpv17−/− cells; assay type: cell-based, mouse; conditions: Mpv17−/− cells with acivicin (γ-GT inhibition), FIG. 2B; β-actin reference
From the text: (§2) Kidneys from background mice (CFW×Balb/c) and transgenic homozygous Mpv17-/- mice ([…]. Noda, D. A. Gray, A. H. Sharpe and R. Jaenisch (1990), Cell, 62, pp. 425434) were obtained at an age of 7 to 9 months and frozen in liquid nitrogen. LUSVX cells (SV40 immortalised fibroblasts from the lungs of Mpv17-/- mice), and NIX1 5 cells (Mpv+/+ cells derived from LUSVX cells by stable transfection of an expression construct for the human Mpv17 cDNA) (A. Reuter. […]. Tuckermann, […]. Wagner, […]. Meyer zum Gottesberge, P. Angel and […] (1998), Molecular Biology of the Cell, 9, pp. 1675-1682) were grown in DMEM including 10% fetal calf serum (FCS) and 1 μg/ml puromycin (NIX15 cultures) at 6.5% CO2 Cells were harvested by trypsinisation and each 5×10^6 cells were washed in 1.5 ml of phosphate-buffered saline (PBS) before freezing the pellet in liquid nitrogen. […] Noda, M. Kohno, A. Mori and L. […] Kidneys and cells were stored frozen at -80° C. mRNA levels were also measured. In particular, levels of mRNA were determined by quantitative RT-PCR. […] Amplified mRNA was separated on 1.5% agarose gels in Tris borate buffer (F. M. Ausubel (1995) Short protocols in molecular biology: a compendium of methods from current protocols in molecular biology. Wiley Press, New York) visualized with vista green (Amersham, Freiburg, FRG) and quantified with a FLA2000 Imager (FUJI).

SOD mRNA = SOD mRNA levels by quantitative RT-PCR in Mpv17−/− cells; assay type: cell-based, mouse; conditions: Mpv17−/− cells with acivicin (γ-GT inhibition), FIG. 2B; β-actin reference
From the text: as §2

γ-GT = target: T2, γ-GT (Rattus norvegicus, UniProt P07314); conditions: short-term ischemia of rat kidney; Cutrin et al. 2000; cited from earlier work
T2 construct: oxidation damage during short-term ischemia of rat kidney

[2] = Mpv17−/− cells (LUSVX) grown in the presence of MnTBAP
[3] = LUSVX cells, MnTBAP 10 μM or acivicin 50 μM added 18 h before harvesting, means ± SEM (n = 3)

T1 sequence (Q60928 1-379 limits assumed): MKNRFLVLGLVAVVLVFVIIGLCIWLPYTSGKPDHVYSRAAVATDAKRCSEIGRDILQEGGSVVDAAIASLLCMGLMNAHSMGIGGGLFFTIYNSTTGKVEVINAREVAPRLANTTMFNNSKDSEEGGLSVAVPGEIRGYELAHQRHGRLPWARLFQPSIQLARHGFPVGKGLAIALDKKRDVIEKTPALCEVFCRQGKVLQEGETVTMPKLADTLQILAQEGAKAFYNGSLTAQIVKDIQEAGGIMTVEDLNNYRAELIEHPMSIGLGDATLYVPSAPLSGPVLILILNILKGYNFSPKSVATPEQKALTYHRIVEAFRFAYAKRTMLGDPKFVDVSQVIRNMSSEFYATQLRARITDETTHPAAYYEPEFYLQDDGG
T1 sequence (Q60928 380-568 limits assumed): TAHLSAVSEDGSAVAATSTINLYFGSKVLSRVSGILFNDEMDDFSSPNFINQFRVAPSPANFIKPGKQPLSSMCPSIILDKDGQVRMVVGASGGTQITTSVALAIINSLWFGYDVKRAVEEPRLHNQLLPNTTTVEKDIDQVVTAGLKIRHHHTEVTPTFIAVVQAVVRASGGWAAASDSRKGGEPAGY
T2 sequence (P07314 1-379 limits assumed): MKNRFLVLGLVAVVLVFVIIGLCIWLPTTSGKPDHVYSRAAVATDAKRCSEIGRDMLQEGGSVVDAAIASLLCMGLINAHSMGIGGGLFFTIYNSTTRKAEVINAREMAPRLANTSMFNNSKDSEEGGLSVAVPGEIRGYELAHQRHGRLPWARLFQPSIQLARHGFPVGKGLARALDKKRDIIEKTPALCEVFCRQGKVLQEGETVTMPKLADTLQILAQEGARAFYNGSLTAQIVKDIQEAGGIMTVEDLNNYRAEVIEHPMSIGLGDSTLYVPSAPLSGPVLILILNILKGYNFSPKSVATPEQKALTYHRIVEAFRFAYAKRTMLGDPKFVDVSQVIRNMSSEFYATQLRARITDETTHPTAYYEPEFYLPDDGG
T2 sequence (P07314 380-568 limits assumed): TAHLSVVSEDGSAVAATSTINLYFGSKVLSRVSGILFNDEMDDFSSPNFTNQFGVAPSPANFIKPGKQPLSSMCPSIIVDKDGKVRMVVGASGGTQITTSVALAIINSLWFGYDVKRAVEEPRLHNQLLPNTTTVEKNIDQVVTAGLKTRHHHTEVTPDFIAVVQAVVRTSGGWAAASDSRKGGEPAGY

| SMILES | Glutathione Peroxidase activity, % of controls (Glutathione Peroxidase; LUSVX cells, MnTBAP 10 μM or acivicin 50 μM, 18 h, relative to untreated LUSVX) | change of GPx activity (in words) (Glutathione Peroxidase; [2]) | γ-Glutamyl Transpeptidase activity [1, 3] | γ-Glutamyl Transpeptidase activity, % of controls ([1]; LUSVX cells, MnTBAP 10 μM, 18 h, relative to untreated LUSVX) | change of γ-GT activity (in words) [1, 2] | Glutathione Peroxidase activity (Glutathione Peroxidase; [3]) | increase of GPx activity (Glutathione Peroxidase; Mpv17−/− cells grown in the presence of acivicin) | activity at 50 µM (Glutathione Peroxidase; Mus musculus, LUSVX cells, MnTBAP 10 μM or acivicin 50 μM, 18 h, relative to untreated LUSVX, read-out: Glutathione Peroxidase activity, % of controls) [%] | pGPx mRNA level (pGPx mRNA) | SOD mRNA levels (SOD mRNA) | oxidation damage caused by γ-GT upregulation (γ-GT) |
| --- | --- | --- | --- | --- | --- | --- | --- | --- | --- | --- | --- |
| O=C(O)c1ccc(-c2c3nc(c(-c4ccc(C(=O)O)cc4)c4ccc([n-]4)c(-c4ccc(C(=O)O)cc4)c4nc(c(-c5ccc(C(=O)O)cc5)c5ccc2[n-]5)C=C4)C=C3)cc1.[Mn+3] [MnTBAP, Mn(III)tetrakis(4-benzoic acid)porphyrin] | (104%)^a) | Neither γ-GT nor GPx activities were changed significantly | 0.94 ± 0.03 nmol/min per mg of protein | (95%) | Neither γ-GT nor GPx activities were changed significantly |  |  |  |  |  |  |
| N[C@H](C(=O)O)[C@@H]1CC(Cl)=NO1 [acivicin] |  |  |  |  |  | 53.5 ± 2.0 nmol/min per mg of protein | about 1.6 fold | 162 | significant increase | significant increase | inhibitable |
